Assay results as given in US7687486B2, “Selective estrogen receptor modulators” (Florida Agricultural & Mechanical University, priority 2003, dated 2010).
Structures can show the parent of a compound that is named as a salt.

System: MCF-7 breast cancer cell line
Assay: MCF-7 breast cancer cell proliferation assay (cell counting after about 72 hours)
Format: cell-based, human
Details: Table 1, Structure II compounds group; about 72 hours incubation, HCl salts; read-out: IC50 (micromolar scale) MCF-7 breast cancer cell line
Description: MCF-7 (ATCC HTB-22) cells, purchased from ATCC (Rockville, Md.), were grown in RPMI medium 1640 with 10% FBS (GIBCO, Grand Island, N.Y.) and 1% Antibiotic-Antimycotic (GIBCO, Grand Island, N.Y.) in an incubator (NUAIRE NU-1500, Plymouth, Minn.) with 5% CO2 and 95% air at about 37° Celsius. Cells were grown as monolayer, doubling time is from about 19 to about 24 hours. The stock solution of the test compound was prepared at 1 mg/ml drug concentration. The stock solution was diluted serially to obtain the desired drug concentrations, of from about 20 to about 200 μg/ml. Plates with twelve wells (5 ml capacity/well) were employed for all the experiments. In a typical experiment, each well contained 1×10^5 initial cells and about 100 μl drug solution in a total volume of about 2 ml media. The final concentrations of compounds were from about 0 to about 100 μg/ml in triplicate sample wells. The plates were incubated at 5% CO2 and 37° C. for about 72 hours. After incubation, cells were washed with PBS 1×, treated by 0.5 ml trypsin-EDTA for about 10 minutes and the cells were suspended by adding about 1.5 ml medium. Cells were counted by using a hemacytometer under a microscope. The data was converted to micromolar concentration using the various molecular weights and represent the mean values and standard errors.
Tables 1-4 illustrate the IC50 (50% inhibitory concentration) values of compounds described in this application against the MCF-7 breast cancer cell line.

IC50 [µM]	Compound
9	CC/C(=C(\c1ccc(O)cc1)c1ccc(OCCN(C)C)cc1)c1ccccc1 [4-Hydroxytamoxifen HCl salt, Trans-4-Hydroxytamoxifen, reference compound]
8.7	CCN(CC)CCOc1ccc2c(c1)CC[C@@H]1[C@@H]2CC[C@]2(C)[C@@H](O)CC[C@@H]12 [(17β)-3-[2-diethylamino]-ethoxy]-]-Δ^1,3,5(10)-estrien-17-ol]
5.6	CC(C)N(CCOc1ccc2c(c1)CC[C@@H]1[C@@H]2CC[C@]2(C)[C@@H](O)CC[C@@H]12)C(C)C [(17β)-3-[2-diisopropylamino]-ethoxy]-]-Δ^1,3,5(10)-estrien-17-ol]
16.2	CN(C)CCOc1ccc2c(c1)CC[C@@H]1[C@@H]2CC[C@]2(C)[C@@H](O)CC[C@@H]12 [(17β)-3-[2-dimethylamino]-ethoxy]-Δ^1,3,5(10)-estrien-17-ol]
19.8	C[C@]12CC[C@@H]3c4ccc(OCCN5CCOCC5)cc4CC[C@H]3[C@@H]1CC[C@@H]2O [(17β)-3-[2-morpholinyl]-ethoxy]-]-Δ^1,3,5(10)-estrien-17-ol]
4.1	C[C@]12CC[C@@H]3c4ccc(OCCN5CCCCC5)cc4CC[C@H]3[C@@H]1CC[C@@H]2O [(17β)-3-[2-piperidinyl]-ethoxy]-]-Δ^1,3,5(10)-estrien-17-ol]
10.8	C[C@]12CC[C@@H]3c4ccc(OCCN5CCCC5)cc4CC[C@H]3[C@@H]1CC[C@@H]2O [(17β)-3-[2-pyrrolidinylamino]-ethoxy]-]-Δ^1,3,5(10)-estrien-17-ol]

Same assay, conditions: Table 2, Structure III compounds group; about 72 hours incubation, HCl salts; read-out: IC50 (micromolar scale) MCF-7 breast cancer cell line

Compound	IC50 [µM]
3-[2-pyrrolidinylamino]-ethoxy]-]-Δ^1,3,5(10)-estrien-17α-ethynyl-17βol	6.4
C#C[C@]1(O)CC[C@H]2[C@@H]3CCc4cc(OCCN(CC)CC)ccc4[C@H]3CC[C@@]21C [3-[2-diethylamino]-ethoxy]-]-Δ^1,3,5(10)-estrien-17α-ethynyl-17β-ol]	7.3
C#CC1(O)CCC2C3CCc4cc(OCCN(C(C)C)C(C)C)ccc4C3CCC21C (stereo not drawn) [3-[2-diisopropylamino]-ethoxy]-]-Δ^1,3,5(10)-estrien-17α-ethynyl-17β-ol]	8.3
C#CC1(O)CCC2C3CCc4cc(OCCN(C)C)ccc4C3CCC21C (stereo not drawn) [3-[2-dimethylamino]-ethoxy]-]-Δ^1,3,5(10)-estrien-17α-ethynyl-17β-ol]	9.1

Second part, the compound after the results:

IC50 [µM]	Compound
21.5	C#CC1(O)CCC2C3CCc4cc(OCCN5CCOCC5)ccc4C3CCC21C (stereo not drawn) [3-[2-morpholinyl]-ethoxy]-]-Δ^1,3,5(10)-estrien-17α-ethynyl-17β-ol]
6.1	C#CC1(O)CCC2C3CCc4cc(OCCN5CCCCC5)ccc4C3CCC21C (stereo not drawn) [3-[2-piperidinyl]-ethoxy]-]-Δ^1,3,5(10)-estrien-17α-ethynyl-17β-ol]
9.5	CC/C(=C(\c1ccc(O)cc1)c1ccc(OCCN(C)C)cc1)c1ccccc1 [4-Hydroxytamoxifen HCl salt, Trans-4-Hydroxytamoxifen, reference compound]

Same assay, conditions: Table 3, Structure IV compounds group; about 72 hours incubation, HCl salts; read-out: IC50 (micromolar scale) MCF-7 breast cancer cell line

Compound	IC50 [µM]
3-[2-pyrrolidinylamino]-ethoxy]-]-Δ^1,3,5(10)-estrien-17-one	10.6
CCN(CC)CCOc1ccc2c(c1)CC[C@@H]1[C@@H]2CC[C@]2(C)C(=O)CC[C@@H]12 [3-[2-diethylamino]-ethoxy]-]-Δ^1,3,5(10)-estrien-17-one]	7.5
CC(C)N(CCOc1ccc2c(c1)CC[C@@H]1[C@@H]2CC[C@]2(C)C(=O)CC[C@@H]12)C(C)C [3-[2-diisopropylamino]-ethoxy]-]-Δ^1,3,5(10)-estrien-17-one]	9.2
CN(C)CCOc1ccc2c(c1)CC[C@@H]1[C@@H]2CC[C@]2(C)C(=O)CC[C@@H]12 [3-[2-dimethylamino]-ethoxy]-]-Δ^1,3,5(10)-estrien-17-one]	37.8
C[C@]12CC[C@@H]3c4ccc(OCCN5CCOCC5)cc4CC[C@H]3[C@@H]1CCC2=O [3-[2-morpholinyl]-ethoxy]-]-Δ^1,3,5(10)-estrien-17-one]	20.8

Second part, the compound after the results:

IC50 [µM]	Compound
5.1	C[C@]12CC[C@@H]3c4ccc(OCCN5CCCCC5)cc4CC[C@H]3[C@@H]1CCC2=O [3-[2-piperidinyl]-ethoxy]-]-Δ^1,3,5(10)-estrien-17-one]
10.6	CC/C(=C(\c1ccc(O)cc1)c1ccc(OCCN(C)C)cc1)c1ccccc1 [4-Hydroxytamoxifen HCl salt, Trans-4-Hydroxytamoxifen, reference compound]

System: breast cancer
Assay: not given
Details: adjuvant therapy; cited from earlier work

Compound	reduction in the recurrence of breast cancer
CN(C)CCOc1ccc(/C(=C(/CCCl)c2ccccc2)c2ccccc2)cc1 [toremifene]	not found to exhibit a statistically significant reduction in the recurrence of breast cancer

System: advanced breast cancer
Assay: not given
Details: tamoxifen 20 mg/day; cited from earlier work

Compound	response rate [%]
CC/C(=C(\c1ccccc1)c1ccc(OCCN(C)C)cc1)c1ccccc1 [tamoxifen]	44

Same assay, conditions: toremifene 60 mg/day; cited from earlier work

Compound	response rate [%]
CN(C)CCOc1ccc(/C(=C(/CCCl)c2ccccc2)c2ccccc2)cc1 [toremifene]	50

Same assay, conditions: toremifene 200 mg/day; cited from earlier work

Compound	response rate [%]
CN(C)CCOc1ccc(/C(=C(/CCCl)c2ccccc2)c2ccccc2)cc1 [toremifene]	48
